Molecules are shown by their SMILES.

In general, inhibition refers to how much of the control response was suppressed. The low end stands for a weak effect, the high end for a strong effect. In general, melting point refers to the temperature, or range, at which the solid turns liquid.

Data set [1] relates to production of nitric oxide in murine macrophage cell line RAW264.7. The experiment in a line: Assay for inhibitory activity on the production of nitric oxide (Griess reagent, LPS/INF γ-activated RAW264.7 cells). It is filed as cell-based. The settings on record: Mus musculus; test compound 10^−6 M; RAW264.7 cells activated with LPS (1 μg/ml) and INF γ (3 u/ml) for 18-24 hours; NO2^− by Griess reagent. As for the experimental part: Test 1: Assay for Inhibitory Activity on the Production of Nitric Oxide The murine macrophage cell line RAW264.7 (American Type Culture Collection, No. TIB71) was used in this study. RAW264.7 cells were grown on […] plastic culture flasks at 37° C., 5% in Dulbecco's modified Eagle's medium (DMEM) supplemented with L-glutamine, penicillin, streptomycin and 10% heat-inactivated fetal bovine serum. They were removed from culture flasks by rubber cell scraper and were centrifuged and resuspended in DMEM without phenol red. They were plated in 96-well microtiter plates (10^5 cells per well) and allowed to adhere over 2 hours. The test samples were added and the cells were preincubated for 1 hour. Thereafter the cells were activated with both of lipopolysaccharide (LPS) (1 μg/ml) and interferon γ (INF γ) (3 u/ml) for 18-24 hours. An equal volume of Griess reagent (1% sulfanilamide/0.1% N-naphthylethylenediamine dihydrochloride/2.5% H3PO4) was added and the cells were incubated at room temperature for 10 minutes. The absorbance was read at 570 nm using microplate reader and NO2^- was measured using NaNO2 as a standard.
(Griess reagent forms a coloured azo dye with nitrite.)

`O=C(N[C@@H](Cc1ccccn1)C(=O)NCC(=O)N1CCN(c2ccc(Cl)cc2)CC1)c1cc2cc(Cl)ccc2o1` [Compound (a), 5-Chloro-N-[(1S)-2-[[2-[4-(4-chlorophenyl)-1-piperazinyl]-2-oxoethyl]amino]-2-oxo-1-(2-pyridylmethyl)ethyl]-1-benzofuran-2-carboxamide]: testing at 1 µM in data set [1] gave an inhibition of 100%.

Regarding `C[C@H]1CN(c2ccccc2)CCN1C(=O)CNC(=O)[C@H](Cc1ccccn1)NC(=O)/C=C/c1ccc(Cl)cc1` [Compound (b), (2E)-3-(4-Chlorophenyl)-N-[(1S)-2-[[2-((2S)-2-methyl-4-phenyl-1-piperazinyl)-2-oxoethyl]amino]-2-oxo-1-(2-pyridylmethyl)ethyl]-2-propenamide], the inhibition at 1 µM in data set [1] turned out to be 100%.

Take `Cc1ccc(N2C[C@@H](C)N(C(=O)CNC(=O)[C@H](Cc3ccccn3)NC(=O)/C=C/c3ccc(Cl)cc3)[C@@H](C)C2)cc1` [Compound (c), (2E)-3-(4-Chlorophenyl)-N-[(1S)-2-[[2-[(2R,6S)-2,6-dimethyl-4-(4-methylphenyl)-1-piperazinyl]-2-oxoethyl]amino]-2-oxo-1-(2-pyridylmethyl)ethyl]-2-propenamide]: at 1 µM the inhibition in data set [1] was 100%.

In data set [1], `O=C(/C=C/c1ccc(Cl)cc1)N[C@@H](Cc1ccccn1)C(=O)NCC(=O)N1CCN(CCC(F)(F)F)CC1` [Compound (d), (2E)-3-(4-Chlorophenyl)-N-[(1S)-2-oxo-2-[[2-oxo-2-[4-(3,3,3-trifluoropropyl)-1-piperazinyl]ethyl]amino]-1-(2-pyridylmethyl)ethyl]-2-propenamide] showed an inhibition at 1 µM of 100%.

As to `O=C(/C=C/c1ccc(Cl)cc1)N[C@@H](Cc1ccccn1)C(=O)NCC(=O)N1CCN(c2ccc(C(F)(F)F)cc2)CC1` [Compound (e), (2E)-3-(4-Chlorophenyl)-N-[(1S)-2-oxo-2-[[2-oxo-2-[4-(4-trifluoromethylphenyl)-1-piperazinyl]ethyl]amino]-1-(2-pyridylmethyl)ethyl]-2-propenamide], the inhibition at 1 µM in data set [1] came to 99%.

Regarding `COc1ccc(N2CCN(C(=O)CNC(=O)[C@H](Cc3ccccn3)NC(=O)c3cc4cc(Cl)ccc4o3)CC2)cc1` [Compound (f), 5-Chloro-N-[(1S)-2-[[2-[4-(4-methoxyphenyl)-1-piperazinyl]-2-oxoethyl]amino]-2-oxo-1-(2-pyridylmethyl)ethyl]-1-benzofuran-2-carboxamide], 1 µM produced 100% inhibition in data set [1].

`O=C(N[C@@H](Cc1ccccn1)C(=O)NCC(=O)N1CCN(c2cccs2)CC1)c1cc2cc(Cl)ccc2o1` [Example 18, 5-Chloro-N-[(1S)-2-oxo-2-[[2-oxo-2-[4-(2-thienyl)-1-piperazinyl]ethyl]amino]-1-(2-pyridylmethyl)ethyl]-1-benzofuran-2-carboxamide] showed a melting point of 75 to 85 °C.

As to `C[C@H](NC(=O)[C@H](Cc1ccccn1)NC(=O)c1cc2cc(Cl)ccc2o1)C(=O)N1CCN(c2ccc(Cl)cc2)CC1` [Example 22, 5-Chloro-N-[(1S)-2-[[(1S)-2-[4-(4-chlorophenyl)-1-piperazinyl]-1-methyl-2-oxoethyl]amino]-2-oxo-1-(2-pyridyl-methyl)ethyl]-1-benzofuran-2-carboxamide], the melting point fell in the range of 152 to 155 °C.

Regarding `C[C@H](NC(=O)[C@H](Cc1ccccn1)NC(=O)/C=C/c1ccc(Cl)cc1)C(=O)N1CCN(c2ccc(Cl)cc2)CC1` [Example 23, (2E)-3-(4-Chlorophenyl)-N-[(1S)-2-[[(1S)-2-[4-(4-chlorophenyl)-1-piperazinyl]-1-methyl-2-oxoethyl]amino]-2-oxo-1-(2-pyridylmethyl)ethyl]-2-propenamide], the melting point was 179 to 181 °C.

`COC[C@@H]1CN(c2ccccc2)CCN1C(=O)CNC(=O)[C@H](Cc1ccccn1)NC(=O)c1cc2cc(Cl)ccc2o1` [Example 25, 5-Chloro-N-[(1S)-2-[[2-[(2S)-2-(methoxymethyl)-4-phenyl-1-piperazinyl]-2-oxoethyl]amino]-2-oxo-1-(2-pyridylmethyl)ethyl]-1-benzofuran-2-carboxamide]: the melting point was in the range of 95 to 100 °C.

In turn, `O=C(N[C@@H](Cc1ccccn1)C(=O)NCC(=O)N1CCN(c2ccccc2)C[C@H]1CO)c1cc2cc(Cl)ccc2o1` [Example 26, 5-Chloro-N-[(1S)-2-[[2-[(2S)-2-(hydroxymethyl)-4-phenyl-1-piperazinyl]-2-oxoethyl]amino]-2-oxo-1-(2-pyridylmethyl)ethyl]-1-benzofuran-2-carboxamide] came in with a melting point of 115 to 120 °C.

The values above are taken from patent US6825200B1, “Substituted dipeptides having nos inhibiting activity” (Fujisawa Pharmaceutical Co., Ltd., priority 1999, dated 2004).
